This test concerns the target (UniProt A0A4D6XHN3). Briefly: ITC titration of E6B08_RS28125 with L-ornithine at different pH. The note with it: 25°C, pH 9.0, read-out: KD at pH optimum. The class given is binding, P. putida 1290.

The record followed here is publication PMC9600550, “The pH Robustness of Bacterial Sensing” (mBio, 2022).

Usually Kd stands for a measure of binding affinity in units of concentration.

Chain of (UniProt A0A4D6XHN3) (A0A4D6XHN3 24-265 limits assumed): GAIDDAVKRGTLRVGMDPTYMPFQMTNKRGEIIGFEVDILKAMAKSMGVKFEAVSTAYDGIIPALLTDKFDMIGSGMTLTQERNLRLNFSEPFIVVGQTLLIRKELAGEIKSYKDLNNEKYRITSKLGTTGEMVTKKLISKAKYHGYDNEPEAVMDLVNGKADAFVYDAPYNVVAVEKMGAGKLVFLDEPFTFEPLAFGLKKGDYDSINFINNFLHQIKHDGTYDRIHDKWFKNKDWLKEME
Experimental: To assess the pH dependence of ligand-binding, freshly purified proteins were dialyzed overnight into the buffers described in Table S1 and submitted to microcalorimetric titration.
Freshly purified proteins were dialyzed into the buffers specified in Table S1 and introduced into the sample cell of an VP-microcalorimeter (MicroCal). Proteins at 15 to 100 μM were titrated with 0.25 to 10 mM ligand solutions that were made up in dialysis buffer. For pH-active ligands, the pH of the ligand solutions was adjusted to that of the dialysis buffer by the addition of concentrated HCl or NaOH. Titrations of MBP and McpV-LBD were conducted at 15°C to favor endothermic contributions to binding heats, whereas the remaining titrations were carried out at 25°C. Raw titration data were integrated, corrected for ligand-dilution heats and normalized with the ligand concentrations. Resulting data were fitted with the “One Binding site model” of the MicroCal version of ORIGIN. Provided are the dissociation constants derived from one experiment and the error of curve-fitting.

`NCCC[C@H](N)C(=O)O` [L-ornithine]: the Kd stood at 660 nM.
